In the assay the test system is monocytes in Caco-2/Monocytes co-culture. Description: Multiplex phosphoprotein signaling in monocyte lysates, Caco-2/monocytes co-culture + LL-37. It counts as cell-based, human. The conditions noted are these: monocyte lysate, 1 µM LL-37, 2 h, mean MFI normalized to β-tubulin. On the procedure: Primary blood monocytes were isolated from PBMCs by plastic adhesion in the wells of a 24-well plate 24 h prior to the experiment. For that, 2 × 10^6 PBMC were seeded in each well in 2 mL of RPMI-1640 without supplements and kept for 1 h in a humidified CO2-incubator (5% CO2, 37 °C). Then, the adhered monocytes were thoroughly washed 3 times with the culture medium without supplements, and 600 µL of the complete RPMI-1640, supplemented with 10% Human AB serum, was added into each well. Then, 24 h later, the medium in the wells of a 24-well plate was replaced by a fresh medium with or without 1 µM of LL-37, and the permeable inserts with Caco-2 monolayers with TEER > 400 Ω × cm^2, containing 400 μL of the complete medium in their apical chamber, were immediately placed into the appropriate wells for 2 h. Then, 2 h later, the culture medium and the inserts were carefully removed, and the cells in each well were washed with PBS and lysed in 100 µL of MILLIPLEX MAP Lysis Buffer (cat. #43-040, Merck, Darmstadt, Germany), containing phosphatase inhibitors including 1 mM sodium orthovanadate (Na3VO4). To prevent protein degradation, a protease inhibitor cocktail (cat. #535140, Merck) was freshly added to the MILLIPLEX MAP Lysis Buffer. Cell lysate preparation was performed in accordance with the manufacturer’s instructions.
The phosphorylation of the following key cell signaling kinases and transcription factors was measured in cell lysates by using the MILLIPLEX multi-pathway magnetic bead 9-plex kit (#48-680MAG, Merck), containing phosphorylation state-specific antibodies: ERK/MAP kinase 1/2 (Thr185/Tyr187), Akt (Ser473), STAT3 (Ser727), JNK (Thr183/Tyr185), p70S6 kinase (Thr412), NF-κB (Ser536), STAT5A/B (Tyr694/699), CREB (Ser133), and p38 (Thr180/Tyr182). β-Tubulin MAPmate magnetic beads (#46-713MAG, Merck) were used as an assay normalization control to normalize the total protein level between the samples. A multiplex assay was carried out in accordance with the manufacturer’s instructions with overnight incubation of the samples with primary antibodies to phosphorylated signaling proteins on the MAGPIX system (Merck) using the xPONENT 4.2 software (Merck). The final analysis of the acquired fluorescence data was performed with the MILLIPLEX Analyst v5.1 software (Merck). Normalized MFI values were compared with an unpaired two-sample t-test using GraphPad Prism v.8.0.1 (GraphPad Software). The p-values ≤ 0.05 were considered significant.

Take “LL-37: the only human cathelicidin, host defense antimicrobial peptide of 37 a.a. residues, produced by solid-phase peptide synthesis”: the “phosphorylated STAT3” value (control 0.06) came out at 0.06 MFI. Also, for the setting “control 0.09”, the “phosphorylated NF-kB” value came to 0.09 MFI and the “phosphorylated STAT5” value turned out to be 0.09 MFI. For the same substance, the “phosphorylated JNK” value (control 48.84) came out at 176.7 MFI. The “phosphorylated p70S6K” value (control 472.48) was 902.08 MFI. Also, the “phosphorylated Akt” value (control 2712) amounted to 2358 MFI. Besides, for the setting “control 5812”, the “phosphorylated ERK 1/2” value came to 11464 MFI. In addition, the “phosphorylated p38” value (control 17697) is on record as 21951 MFI. Besides, for the setting “control 81479”, the “phosphorylated CREB” value amounted to 106317 MFI.

(Values after publication PMC10526274, “Epithelial-Immune Cell Crosstalk Determines the Activation of Immune Cells In Vitro by the Human Cathelicidin LL-37 at Low Physiological Concentrations” (Biomolecules, 2023).)
